Data from patent publication EP1931657B1, “NOVEL HIGH AFFINITY QUINOLINE-BASED KINASE LIGANDS” (Merck Sharp & Dohme Corp., priority 2005, dated 2007).

Target: CDK-2 (Homo sapiens, UniProt P24941)
Test: CDK-2 inhibition, fluorescence polarization displacement assay
Description: Binding assays were performed in a 384 well Costar NBS coated plate. […] The concentration of BMS-Alexa Fluor647 was 50 nM. Serial dilutions of compounds were added to 12 wells. The final buffer concentration was 10 mM Hepes, pH 7.5, 150 mM NaCl, and 1 mM DTT. Samples were incubated at room temperature for 15 minutes and then read in an Analyst HT instrument using an excitation and emission wavelength of 580 and 680 nm, respectively.

SMILES	IC50
COC(=O)[C@H](Cc1ccc(O)cc1)NC(=O)c1cc(C(=O)O)c2cc(/C=C/c3ccc(F)cc3)ccc2n1 [Compound 6]	< 1000 nM
COC(=O)[C@H](Cc1ccc(O)cc1)NC(=O)c1cc(C(=O)O)c2cc(CCc3ccc(C(F)(F)F)cc3)ccc2n1 [Compound 8]	< 1000 nM
COC(=O)[C@H](Cc1ccc(O)cc1)NC(=O)c1cc(C(=O)O)c2cc(/C=C/C(C)(C)C)ccc2n1 [Compound 11]	< 1000 nM
CNC(=O)[C@H](Cc1ccc(O)cc1)NC(=O)c1cc(C(=O)O)c2cc(/C=C/c3ccc(Cl)cc3)ccc2n1 [Compound 14]	< 1000 nM
COC[C@H](Cc1ccc(O)cc1)NC(=O)c1cc(C(=O)O)c2cc(-c3cccc(Cn4ccccc4=O)c3)ccc2n1 [Compound 26]	< 1000 nM
COC[C@H](Cc1ccc(O)cc1)NC(=O)c1cc(NS(=O)(=O)C(C)(C)C)c2cc(-c3cccc(COc4ccccn4)c3)ccc2n1 [Compound 27]	< 1000 nM
COC(=O)[C@H](Cc1ccc(O)cc1)NC(=O)c1cc(C(=O)O)c2cc(-c3cccc(C(C)C)c3)ccc2n1 [Compound 30]	< 1000 nM
COC(=O)[C@H](Cc1ccc(O)cc1)NC(=O)c1cc(C(=O)O)c2cc(CCc3ccc(F)cc3)ccc2n1 [Compound 31]	< 1000 nM
COC(=O)[C@H](Cc1ccc(O)cc1)NC(=O)c1cc(C(=O)O)c2cc(-c3cccc([N+](=O)[O-])c3)ccc2n1 [Compound 33]	< 1000 nM
CN(C)C(=O)[C@H](Cc1ccc(O)cc1)NC(=O)c1cc(C(=O)O)c2cc(/C=C/c3ccc(Cl)cc3)ccc2n1 [Compound 34]	< 1000 nM
COC(=O)[C@H](Cc1ccc(O)cc1)NC(=O)c1cc(C(=O)O)c2cc(-c3cccc(C#N)c3)ccc2n1 [Compound 36]	< 1000 nM
COC(=O)[C@H](Cc1ccc(O)cc1)NC(=O)c1cc(C(=O)O)c2cc(-c3cc4ccccc4o3)ccc2n1 [Compound 38]	< 1000 nM
COC(=O)[C@H](Cc1ccc(O)cc1)NC(=O)c1cc(C(=O)O)c2cc(-c3ccc(F)c(C)c3)ccc2n1 [Compound 41]	< 1000 nM
COC(=O)[C@H](Cc1ccc(O)cc1)NC(=O)c1cc(C(=O)O)c2cc(-c3cccc(-c4ccccc4)c3)ccc2n1 [Compound 42]	< 1000 nM
O=C(N[C@@H](Cc1ccc(O)cc1)C(=O)NC1CC1)c1cc(C(=O)O)c2cc(/C=C/c3ccc(Cl)cc3)ccc2n1 [Compound 44]	< 1000 nM
COC(=O)[C@H](Cc1ccc(O)cc1)NC(=O)c1cc(C(=O)O)c2cc(-c3cccc(C)c3)ccc2n1 [Compound 48]	< 1000 nM
COC(=O)[C@H](Cc1ccc(O)cc1)NC(=O)c1cc(C(=O)O)c2cc(-c3ccc(C)c([N+](=O)[O-])c3)ccc2n1 [Compound 49]	< 1000 nM
COC(=O)[C@H](Cc1ccc(O)cc1)NC(=O)c1cc(C(=O)O)c2cc(-c3ccc(F)c(Cl)c3)ccc2n1 [Compound 50]	< 1000 nM
COC(=O)[C@H](Cc1ccc(O)cc1)NC(=O)c1cc(C(=O)O)c2cc(-c3ccc(Oc4ccccc4)cc3)ccc2n1 [Compound 51]	< 1000 nM
COC(=O)[C@H](Cc1ccc(O)cc1)NC(=O)c1cc(C(=O)O)c2cc(CCC(C)(C)C)ccc2n1 [Compound 52]	< 1000 nM
CCCC(Cc1ccc(O)cc1)NC(=O)c1cc(C(=O)O)c2cc(-c3cccc(C(F)(F)F)c3)ccc2n1 (centres unmarked) [Compound 54]	< 1000 nM
COC(=O)[C@H](Cc1ccc(O)cc1)NC(=O)c1cc(C(=O)O)c2cc(-c3cc4ccccc4s3)ccc2n1 [Compound 58]	< 1000 nM
COC(=O)[C@H](Cc1ccc(O)cc1)NC(=O)c1cc(C(=O)O)c2cc(CCc3ccccc3)ccc2n1 [Compound 60]	< 1000 nM
O=C(NC(Cc1ccc(O)cc1)C1CCCCC1)c1cc(C(=O)O)c2cc(-c3cccc(C(F)(F)F)c3)ccc2n1 (centres unmarked) [Compound 63]	< 1000 nM

SMILES	IC50
COC(=O)[C@H](Cc1ccc(O)cc1)NC(=O)c1cc(NS(C)(=O)=O)c2cc(-c3cccc(C(F)(F)F)c3)ccc2n1 [Compound 64]	< 1000 nM
COC(=O)[C@H](Cc1ccc(O)cc1)NC(=O)c1cc(C(=O)O)c2cc(-c3cc(C)cc(C)c3)ccc2n1 [Compound 67]	< 1000 nM
COC(=O)[C@H](Cc1ccc(O)cc1)NC(=O)c1cc(C(=O)O)c2cc(-c3ccc(Cl)c(Cl)c3)ccc2n1 [Compound 69]	< 1000 nM
COC[C@H](Cc1ccc(O)cc1)NC(=O)c1cc(S(=O)(=O)O)c2cc(-c3cccc(C(F)(F)F)c3)ccc2n1 [Compound 71]	< 1000 nM
COC(=O)[C@H](Cc1ccc(O)cc1)NC(=O)c1cc(C(=O)O)c2cc(-c3ccc(C(C)C)cc3)ccc2n1 [Compound 72]	< 1000 nM
COC(=O)[C@H](Cc1ccc(O)cc1)NC(=O)c1cc(C(=O)O)c2cc(-c3ccc(OC)cc3)ccc2n1 [Compound 76]	< 1000 nM
COC(=O)[C@H](Cc1ccc(O)cc1)NC(=O)c1cc(C(=O)O)c2cc(-c3cccs3)ccc2n1 [Compound 81]	< 1000 nM
COC(=O)[C@H](Cc1ccc(O)cc1)NC(=O)c1cc(C(=O)O)c2cc(-c3ccc(C)s3)ccc2n1 [Compound 82]	< 1000 nM
COC(=O)[C@H](Cc1ccc(O)cc1)NC(=O)c1cc(C(=O)O)c2cc(-c3ccc(Cl)cc3)ccc2n1 [Compound 83]	< 1000 nM
O=C(N[C@@H](Cc1ccc(O)cc1)c1ncc[nH]1)c1cc(C(=O)O)c2cc(-c3cccc(C(F)(F)F)c3)ccc2n1 [Compound 86]	< 1000 nM
COC[C@H](Cc1ccc(O)cc1)NC(=O)c1cc(-c2nnn[nH]2)c2cc(-c3cccc(C(F)(F)F)c3)ccc2n1 [Compound 87]	< 1000 nM
COC(=O)[C@H](Cc1ccc(O)cc1)NC(=O)c1cc(C(=O)O)c2cc(-c3cccc(OC)c3)ccc2n1 [Compound 91]	1000 to 40000 nM
COC(=O)[C@H](Cc1ccc(O)cc1)NC(=O)c1cc(C(=O)O)c2cc(-c3ccc(Cl)c(F)c3)ccc2n1 [Compound 92]	1000 to 40000 nM
COC(=O)[C@H](Cc1ccc(O)cc1)NC(=O)c1cc(C(=O)O)c2cc(-c3cccc(F)c3)ccc2n1 [Compound 93]	1000 to 40000 nM
COC[C@H](Cc1ccc(O)cc1)NC(=O)c1cc(C(=O)NS(C)(=O)=O)c2cc(-c3cccc(C(F)(F)F)c3)ccc2n1 [Compound 95]	1000 to 40000 nM
NC[C@H](Cc1ccc(O)cc1)NC(=O)c1cc(C(=O)O)c2cc(CCc3ccc(Cl)cc3)ccc2n1 [Compound 97]	1000 to 40000 nM
COC[C@H](Cc1ccc(O)cc1)NC(=O)c1cc(NS(=O)(=O)C(C)(C)C)c2cc(-c3cccc(COc4cccc[n+]4[O-])c3)ccc2n1 [Compound 98]	1000 to 40000 nM
O=C(N[C@@H](Cc1ccc(O)cc1)c1cnco1)c1cc(C(=O)O)c2cc(-c3cccc(C(F)(F)F)c3)ccc2n1 [Compound 99]	1000 to 40000 nM
COC(=O)[C@H](Cc1ccc(O)cc1)NC(=O)c1cc(C(=O)O)c2cc(-c3ccc(C)cc3)ccc2n1 [Compound 103]	1000 to 40000 nM
COC(=O)[C@H](Cc1ccc(O)cc1)NC(=O)c1cc(C(=O)O)c2cc(-c3cccc(C(C)=O)c3)ccc2n1 [Compound 104]	1000 to 40000 nM
COC(=O)[C@H](Cc1ccc(O)cc1)NC(=O)c1cc(C(=O)O)c2cc(-c3ccc(N(C)C)cc3)ccc2n1 [Compound 107]	1000 to 40000 nM
CC(Cc1ccc(O)cc1)NC(=O)c1cc(C(=O)O)c2cc(-c3cccc(C(F)(F)F)c3)ccc2n1 (centres unmarked) [Compound 110]	1000 to 40000 nM
COC(=O)[C@H](Cc1ccc(O)cc1)NC(=O)c1cc(C(=O)O)c2cc(-c3cc(C(F)(F)F)cc(C(F)(F)F)c3)ccc2n1 [Compound 112]	1000 to 40000 nM
